Experimental data reported in US12584098B2, “In-vitro model of the human gut microbiome and uses thereof in the analysis of the impact of xenobiotics” (EUROPEAN MOLECULAR BIOLOGY LABORATORY, priority 2018, dated 2026).
Like-named read-outs stand apart in the source and are kept apart here.

Columns and labels:
gut bacterial strains = assay: Testing for anticommensal activity at higher concentrations (validation of side effect-based predictions); type: cell-based
Experimental: Compounds of interest were purchased from independent sources and if possible, dissolved at 5 mM concentration in mGAM. Lower concentrations were used when solubility limit was reached. Solutions were sterile filtered, and three 4-fold serial dilutions were arranged in 96 well plates, aiming at covering a broad range of drug concentrations. Inoculation and growth curve acquisition was performed as described for the MIC determination experiments.

C. saccharolyticum = conditions: 50 μM drug
Experimental: (§2) For all drugs, a fixed concentration of 50 µM was used, which in most cases approximates the concentration of one pill (0.02-3 mmol) diluted in the volume of the gut (approx. 2.5 L). One bacteria-free control per plate and drug, but triplicates for each bacteria-drug interaction was screened. The screen was carried out under anaerobic conditions in 96-well plates (NUNCLON Delta Surface 163320, NUNC) with 150 μl GMM as the growth medium sealed with a Breathe-Easy® sealing membrane (Z380059, SIGMA-ALDRICH). Plates containing 100 μl of the medium and 75 μM of the drug were prepared beforehand, stored at −20° C. and used as needed. Frozen plates were introduced into the anaerobic chamber the evening before inoculation. Wells were inoculated with 50 μl of a second passage culture with an end OD578 of 0.01. Growth was monitored with measurements of the optical density at 578 nm using an Eon Microplate Spectrophotometer (BIOTEK) approximately every 2 h for the first 10 h, then approximately every 6 h. After 48 h, plates were removed from the anaerobic chamber and the bacteria spinned down (4000 rpm, 10 min). […] All liquid handling outside of anaerobic chamber was done using a liquid handling robot (FXp, BIOMEK). […] The bacteria-drug interaction screen was conducted with two biological replicates.

E. coli IAI1 = conditions: 50 μM drug
Experimental: as §2

25 gut bacterial strains [1] = assay: Bacteria-drug interaction screen: drug depletion from supernatant (UV-UPLC); conditions: 50 μM drug, 48 h anaerobic growth
Experimental: (§1) All liquid chromatography methods are run on a Waters Acquity UPLC H-Class instrument with a PDA detector and a quaternary solvent system. All established methods are 5 minutes long, have a flow rate of 0.5 ml/min and run on a CSH C18 column (Waters, Part number 186005297) in reverse mode. The column is heated to 40° C. and samples are kept at 6° C. All methods use 50% acetonitrile (Biosolve, ULC grade) for washing buffer, and 50% methanol (Biosolve, ULC grade) for purging buffer. As organic mobile phase acetonitrile was used. The assay was optimized using only two buffers besides water as hydrophilic mobile phase: 5 mM formic acid (Biosolve, ULC grade) of pH 3.2 and 5 mM ammonium formate (Ammonium hydroxide, ACS grade, Sigma) with pH adjusted to 8.3 using the formic acid buffer.
For all drugs, a fixed concentration of 50 µM was used, which in most cases approximates the concentration of one pill (0.02-3 mmol) diluted in the volume of the gut (approx. 2.5 L). One bacteria-free control per plate and drug, but triplicates for each bacteria-drug interaction was screened. […] Growth was monitored with measurements of the optical density at 578 nm using an Eon Microplate Spectrophotometer (BIOTEK) approximately every 2 h for the first 10 h, then approximately every 6 h. […]

[2] = test system: gut bacterial strains (hits of the interaction screen); assay: Depletion-mode assay: supernatant vs total extraction; conditions: 50 μM drug, 48 h, GMM
Experimental: If the drug is only depleted in the supernatant, the drug is likely a bioaccumulated, whereas if the drug is also depleted in the extraction of the total fraction a biodegradation is likely.
as §1
Bacteria from second passage culture are inoculated with an OD578 of 0.01 in 1 mL GMM containing 50 μM drug of interest in 2 mL eppendorf tubes and incubated for 48 h while shaking. After finishing growth, the cultures were removed from the anaerobic chamber. […]

[3] = cited from earlier work
25 gut bacterial strains [4] = assay: Growth effect (OD578) in the bacteria-drug interaction screen; type: cell-based, human gut bacteria; conditions: 50 μM drug, 25 strains
Experimental: as §2

With CN(C)C(=N)N=C(N)N [Metformin] the “anticommensal activity at concentrations higher than the 20 μM of the screen” value (gut bacterial strains) was “verified”.
For CNCC[C@H](Oc1cccc2ccccc12)c1cccs1 [duloxetine], the “effect on growth of C. saccharolyticum” value (C. saccharolyticum) was “inhibiting growth” and the “effect on growth of E. coli IAI1” value (E. coli IAI1) was “inhibiting growth”.
In the case of O=C1[C@H](CC[C@H](O)c2ccc(F)cc2)[C@@H](c2ccc(O)cc2)N1c1ccc(F)cc1 [ezetimibe], the “depletion of drug from the medium by bacterial strains (in words)” value (25 gut bacterial strains [1]) is reported as “interacting only with a few bacterial strains”.
With CC(C)(O)c1ccccc1CC[C@@H](SCC1(CC(=O)O)CC1)c1cccc(/C=C/c2ccc3ccc(Cl)cc3n2)c1 [montelukast] the “predominant mode of depletion” value [2] was “bioaccumulation” and the “depletion mode: bioaccumulation or biodegradation (in words)” value ([2]; supernatant vs total extraction) was “bioaccumulated and then partially degraded by several bacterial strains”.
In the case of CC[C@@H]([C@H](C)O)n1ncn(-c2ccc(N3CCN(c4ccc(OC[C@@H]5CO[C@@](Cn6cncn6)(c6ccc(F)cc6F)C5)cc4)CC3)cc2)c1=O [posaconazole], the “maximum concentration in the duodenum” value ([3]; 40 mg (57 μmol) delivered to the stomach in acidic solution) is given as 26.3 ± 10.3 µM and the “maximum concentration in the duodenum” value ([3]; 40 mg (57 μmol) delivered to the stomach in neutral solution) is given as 13.6 ± 5.8 µM.
For C[C@H](Cn1cnc2c(N)ncnc21)OCP(=O)(O)O [tenofovir], the “effect on bacterial growth in the screen” value (25 gut bacterial strains [4]) was “nor affecting bacterial growth” and the “depletion of drug from the medium by bacterial strains (in words)” value (25 gut bacterial strains [1]) was “neither being depleted”.
